From patent US5399565A, “Pyrazolidinone CCK and gastrin antagonists and pharmaceutical formulations therof” (priority 1993, dated 1995)

Settings: 2:1 dmf:h2o

titration pKa: 4.8
Substance: 1-[(4-Bromophenyl)aminocarbonyl]-2-carboxymethyl-4,5-diphenyl-3-pyrazolidinone and 1-[(4-bromophenyl)aminocarbonyl]-3-carboxymethoxy-4,5-diphenyl-2-pyrazoline [Example 12]
